Results as given in patent US10710978B2, “STK4 inhibitors for treatment of hematologic malignancies” (Dana-Farber Cancer Institute, Inc., priority 2015, dated 2020).
Where two headings read alike, the source gives them in different places.

What was measured:
Assay in all cases: KiNativ assay
Format in all cases: binding
Settings in all cases: H929 live cell
[1] = target: PFTAIRE1 (Homo sapiens (Human), UniProt O94921)
Protocol: (§1) Biochemical IC50s of the compounds of the present disclosure against various kinases were measured in a KiNativ assay. Compounds were screened in duplicate at 10 μM in H929 live cell. IC50 was measured via Mass spectroscopy (MS).

[2] = target: CHK2 (Homo sapiens (Human), UniProt O96017)
Protocol: as §1

[3] = tested on: MST4, YSK1
Protocol: as §1

[4] = target: AurB (Homo sapiens (Human), UniProt Q96GD4)
Protocol: as §1

[5] = target: NEK9 (Homo sapiens (Human), UniProt Q8TD19)
Protocol: as §1

[6] = target: MSK2 domain1 (Homo sapiens (Human), UniProt O75676)
Protocol: as §1

[7] = target: GSK3B (Homo sapiens (Human), UniProt P49841)
Protocol: as §1

[8] = target: PRP4 (Homo sapiens (Human), UniProt Q13523)
Protocol: as §1

[9] = target: PIK3CB (Homo sapiens (Human), UniProt P42338)
Protocol: as §1

[10] = target: LKB1 (Homo sapiens (Human), UniProt Q15831)
Protocol: as §1

[11] = target: CaMK2d (Homo sapiens (Human), UniProt Q13557)
Protocol: as §1

[12] = target: TAO2 (Homo sapiens (Human), UniProt Q9UL54)
Protocol: as §1

[13] = target: MAP2K7 (Homo sapiens (Human), UniProt O14733)
Protocol: as §1

[14] = target: MAP2K5 (Homo sapiens (Human), UniProt Q13163)
Protocol: as §1

[15] = target: CK1g2 (Homo sapiens (Human), UniProt P78368)
Protocol: as §1

[16] = target: DGKH (Homo sapiens (Human), UniProt Q86XP1)
Protocol: as §1

[17] = target: CDK7 (Homo sapiens (Human), UniProt P50613)
Protocol: as §1

[18] = target: NDR2 (Homo sapiens (Human), UniProt Q9Y2H1)
Protocol: as §1

[19] = tested on: MARK1, MARK2
Protocol: as §1

[20] = target: MST2 (Homo sapiens (Human), UniProt Q13188)
Protocol: as §1

[21] = target: JAK3 domain2 (Homo sapiens (Human), UniProt P52333)
Protocol: as §1

[22] = tested on: CDK11, CDK8
Protocol: as §1

[23] = tested on: KSR1, KSR2
Protocol: as §1

[24] = target: TYK2 domain2 (Homo sapiens (Human), UniProt P29597)
Protocol: as §1

[25] = range class, read-out: % inhibition

DGKH, sequence (Q86XP1 whole entry): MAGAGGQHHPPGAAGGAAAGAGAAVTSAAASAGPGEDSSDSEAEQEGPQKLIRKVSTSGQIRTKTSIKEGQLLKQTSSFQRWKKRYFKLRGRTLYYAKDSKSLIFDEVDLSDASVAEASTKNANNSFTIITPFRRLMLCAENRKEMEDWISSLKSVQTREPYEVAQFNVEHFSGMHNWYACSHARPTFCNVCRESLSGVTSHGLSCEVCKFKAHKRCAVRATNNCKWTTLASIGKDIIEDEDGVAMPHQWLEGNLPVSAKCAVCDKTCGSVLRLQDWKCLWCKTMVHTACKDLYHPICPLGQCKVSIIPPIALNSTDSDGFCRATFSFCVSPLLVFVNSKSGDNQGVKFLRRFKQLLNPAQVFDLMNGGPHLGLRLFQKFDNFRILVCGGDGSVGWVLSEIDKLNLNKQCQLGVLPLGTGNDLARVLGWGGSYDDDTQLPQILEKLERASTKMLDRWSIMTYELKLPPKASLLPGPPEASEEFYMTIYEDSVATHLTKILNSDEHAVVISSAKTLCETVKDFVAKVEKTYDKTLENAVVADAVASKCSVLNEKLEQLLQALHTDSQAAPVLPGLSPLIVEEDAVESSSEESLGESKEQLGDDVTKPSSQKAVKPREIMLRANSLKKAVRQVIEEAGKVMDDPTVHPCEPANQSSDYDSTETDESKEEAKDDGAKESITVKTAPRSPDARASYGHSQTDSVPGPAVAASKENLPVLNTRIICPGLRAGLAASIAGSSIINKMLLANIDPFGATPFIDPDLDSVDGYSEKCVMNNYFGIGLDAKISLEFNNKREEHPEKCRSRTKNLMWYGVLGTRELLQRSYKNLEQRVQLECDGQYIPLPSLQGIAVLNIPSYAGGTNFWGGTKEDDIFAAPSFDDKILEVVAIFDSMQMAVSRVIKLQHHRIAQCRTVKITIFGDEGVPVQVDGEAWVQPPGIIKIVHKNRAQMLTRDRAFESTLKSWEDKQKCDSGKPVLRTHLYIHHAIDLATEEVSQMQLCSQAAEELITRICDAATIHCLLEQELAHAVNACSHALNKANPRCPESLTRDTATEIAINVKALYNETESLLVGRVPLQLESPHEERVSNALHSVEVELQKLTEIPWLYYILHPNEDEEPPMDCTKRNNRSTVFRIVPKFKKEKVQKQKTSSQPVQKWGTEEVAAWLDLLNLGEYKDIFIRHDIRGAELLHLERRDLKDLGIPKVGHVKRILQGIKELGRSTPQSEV
CK1g2, sequence (P78368 whole entry): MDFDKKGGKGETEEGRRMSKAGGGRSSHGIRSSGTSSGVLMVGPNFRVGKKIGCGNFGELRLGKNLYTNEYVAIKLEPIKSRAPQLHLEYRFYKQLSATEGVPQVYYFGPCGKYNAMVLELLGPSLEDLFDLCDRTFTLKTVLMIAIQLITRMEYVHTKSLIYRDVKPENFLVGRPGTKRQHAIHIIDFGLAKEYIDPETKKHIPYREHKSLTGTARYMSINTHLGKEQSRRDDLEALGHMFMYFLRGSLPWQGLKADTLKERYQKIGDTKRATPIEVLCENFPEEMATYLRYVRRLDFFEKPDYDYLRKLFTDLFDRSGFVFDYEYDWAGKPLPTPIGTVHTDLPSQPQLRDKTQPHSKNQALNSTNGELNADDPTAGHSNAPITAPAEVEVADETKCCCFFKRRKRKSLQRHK
PRP4, sequence (Q13523 whole entry): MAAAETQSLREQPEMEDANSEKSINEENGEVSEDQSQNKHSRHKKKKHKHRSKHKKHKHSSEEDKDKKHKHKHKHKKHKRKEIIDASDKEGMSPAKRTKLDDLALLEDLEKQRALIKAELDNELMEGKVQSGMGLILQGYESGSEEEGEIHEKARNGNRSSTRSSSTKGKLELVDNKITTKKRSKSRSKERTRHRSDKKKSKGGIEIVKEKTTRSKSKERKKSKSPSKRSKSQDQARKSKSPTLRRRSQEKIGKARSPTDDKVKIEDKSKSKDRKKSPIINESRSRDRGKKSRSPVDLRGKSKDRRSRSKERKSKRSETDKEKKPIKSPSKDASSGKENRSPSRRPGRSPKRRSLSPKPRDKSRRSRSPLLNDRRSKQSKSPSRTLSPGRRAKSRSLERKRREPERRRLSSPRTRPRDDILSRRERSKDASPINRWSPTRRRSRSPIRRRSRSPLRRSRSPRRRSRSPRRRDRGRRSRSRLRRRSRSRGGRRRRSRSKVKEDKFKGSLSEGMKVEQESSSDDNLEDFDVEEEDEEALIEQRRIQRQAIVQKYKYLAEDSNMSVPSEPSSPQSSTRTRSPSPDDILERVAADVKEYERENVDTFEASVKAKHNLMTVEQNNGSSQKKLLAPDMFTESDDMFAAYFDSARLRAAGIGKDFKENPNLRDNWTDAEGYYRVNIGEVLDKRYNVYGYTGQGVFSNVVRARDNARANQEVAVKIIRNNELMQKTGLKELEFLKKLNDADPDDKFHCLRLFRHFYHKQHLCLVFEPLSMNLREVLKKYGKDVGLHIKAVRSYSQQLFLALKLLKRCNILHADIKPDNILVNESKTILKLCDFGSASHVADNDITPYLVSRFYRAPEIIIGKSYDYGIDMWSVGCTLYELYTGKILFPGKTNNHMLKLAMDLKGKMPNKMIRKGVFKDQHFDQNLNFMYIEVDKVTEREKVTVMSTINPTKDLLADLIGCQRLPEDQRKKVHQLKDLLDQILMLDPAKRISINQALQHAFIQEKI
JAK3 domain2, sequence (P52333 whole entry, the tested form may be a part): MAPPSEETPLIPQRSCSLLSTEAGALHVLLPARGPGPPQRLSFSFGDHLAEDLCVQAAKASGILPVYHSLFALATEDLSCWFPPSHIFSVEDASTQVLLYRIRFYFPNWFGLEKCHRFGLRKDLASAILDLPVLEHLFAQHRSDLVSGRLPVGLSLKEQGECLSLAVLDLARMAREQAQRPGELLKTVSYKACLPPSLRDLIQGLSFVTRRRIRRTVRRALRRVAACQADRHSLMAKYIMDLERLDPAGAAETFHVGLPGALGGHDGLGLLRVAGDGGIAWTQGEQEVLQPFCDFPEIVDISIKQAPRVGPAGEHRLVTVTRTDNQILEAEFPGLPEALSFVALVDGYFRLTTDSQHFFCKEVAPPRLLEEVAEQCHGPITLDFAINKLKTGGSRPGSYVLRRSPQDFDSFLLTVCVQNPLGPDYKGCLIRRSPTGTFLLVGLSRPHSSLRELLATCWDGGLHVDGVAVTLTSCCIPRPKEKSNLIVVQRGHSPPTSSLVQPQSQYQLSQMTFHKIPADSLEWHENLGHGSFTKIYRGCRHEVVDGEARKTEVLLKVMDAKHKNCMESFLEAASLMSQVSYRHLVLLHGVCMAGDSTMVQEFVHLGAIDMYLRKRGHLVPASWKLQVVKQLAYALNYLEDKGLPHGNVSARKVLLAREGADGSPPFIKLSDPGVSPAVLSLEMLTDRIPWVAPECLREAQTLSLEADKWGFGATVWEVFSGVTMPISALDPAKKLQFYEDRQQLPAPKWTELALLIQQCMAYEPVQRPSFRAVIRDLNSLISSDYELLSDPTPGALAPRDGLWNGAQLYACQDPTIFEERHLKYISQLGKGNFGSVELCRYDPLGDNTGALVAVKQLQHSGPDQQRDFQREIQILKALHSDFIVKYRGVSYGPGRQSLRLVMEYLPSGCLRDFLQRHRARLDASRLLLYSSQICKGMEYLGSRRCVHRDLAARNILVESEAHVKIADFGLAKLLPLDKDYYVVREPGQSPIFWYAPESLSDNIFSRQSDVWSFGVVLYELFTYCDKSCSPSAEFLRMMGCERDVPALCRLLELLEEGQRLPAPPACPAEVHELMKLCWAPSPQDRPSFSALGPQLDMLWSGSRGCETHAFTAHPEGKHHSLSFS
CDK7, sequence (P50613 whole entry): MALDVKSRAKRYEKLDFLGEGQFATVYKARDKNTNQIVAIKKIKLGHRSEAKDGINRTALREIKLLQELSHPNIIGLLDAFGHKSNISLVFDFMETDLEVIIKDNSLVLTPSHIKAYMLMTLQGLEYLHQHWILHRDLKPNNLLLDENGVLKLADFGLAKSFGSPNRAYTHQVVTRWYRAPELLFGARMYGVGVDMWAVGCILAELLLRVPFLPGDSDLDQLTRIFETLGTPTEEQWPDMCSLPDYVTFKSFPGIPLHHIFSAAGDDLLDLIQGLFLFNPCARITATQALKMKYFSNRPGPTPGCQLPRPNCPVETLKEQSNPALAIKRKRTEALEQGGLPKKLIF
CDK7, sequence (P51946 whole entry partner): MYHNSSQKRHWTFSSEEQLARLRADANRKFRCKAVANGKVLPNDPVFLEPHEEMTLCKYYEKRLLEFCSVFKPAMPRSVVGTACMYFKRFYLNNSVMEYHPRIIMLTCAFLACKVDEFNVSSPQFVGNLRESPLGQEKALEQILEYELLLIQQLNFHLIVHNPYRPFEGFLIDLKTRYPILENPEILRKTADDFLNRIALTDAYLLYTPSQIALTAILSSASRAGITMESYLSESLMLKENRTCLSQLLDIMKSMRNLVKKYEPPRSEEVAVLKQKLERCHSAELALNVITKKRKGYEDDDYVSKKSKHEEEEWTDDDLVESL
CDK7, sequence (P51948 whole entry partner): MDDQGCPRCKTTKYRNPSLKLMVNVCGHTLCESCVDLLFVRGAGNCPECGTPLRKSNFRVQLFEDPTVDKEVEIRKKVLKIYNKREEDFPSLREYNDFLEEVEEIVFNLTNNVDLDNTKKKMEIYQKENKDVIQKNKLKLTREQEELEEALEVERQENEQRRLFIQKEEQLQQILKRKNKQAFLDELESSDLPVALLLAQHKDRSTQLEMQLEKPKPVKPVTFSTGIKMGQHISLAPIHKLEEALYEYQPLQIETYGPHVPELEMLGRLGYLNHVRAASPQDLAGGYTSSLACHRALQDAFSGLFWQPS

CN(C1CC1)S(=O)(=O)c1ccc(-c2cnc(N)c(-c3ccc4c(c3)CCNC4=O)c2)c(F)c1 [Compound I-28, 4-(6-amino-5-(1-oxo-1,2,3,4-tetrahydroisoquinolin-6-yl)pyridin-3-yl)-N-cyclopropyl-3-fluoro-N-methylbenzenesulfonamide]
inhibition at 10 µM ([1]; read-out: % inhibition (range)): 0% | inhibition at 10 µM ([1]; read-out: inhibition (10 μM)): 22.2% | inhibition at 10 µM ([2]; read-out: % inhibition (range)): 0% | inhibition at 10 µM ([2]; read-out: inhibition (10 μM)): 6.8% | % inhibition (range) ([3]; 10 μM): 75-90% | inhibition (10 μM) [3]: 76.7% | inhibition at 10 µM ([4]; read-out: % inhibition (range)): 0% | inhibition at 10 µM ([4]; read-out: inhibition (10 μM)): 32.7% | inhibition at 10 µM ([5]; read-out: % inhibition (range)): 0% | inhibition at 10 µM ([5]; read-out: inhibition (10 μM)): -4.7% | inhibition at 10 µM ([6]; read-out: % inhibition (range)): 0% | inhibition at 10 µM ([6]; read-out: inhibition (10 μM)): 2.9% | inhibition at 10 µM ([7]; read-out: % inhibition (range)): > 90% | inhibition at 10 µM ([7]; read-out: inhibition (10 μM)): 96.4% | inhibition at 10 µM ([8]; read-out: % inhibition (range)): 0% | inhibition at 10 µM ([8]; read-out: inhibition (10 μM)): 3.7% | inhibition at 10 µM ([9]; read-out: % inhibition (range)): 0% | inhibition at 10 µM ([9]; read-out: inhibition (10 μM)): 1.9% | inhibition at 10 µM ([10]; read-out: % inhibition (range)): 0% | inhibition at 10 µM ([10]; read-out: inhibition (10 μM)): -0.6% | inhibition at 10 µM ([11]; read-out: % inhibition (range)): 0% | inhibition at 10 µM ([11]; read-out: inhibition (10 μM)): -31% | inhibition at 10 µM ([12]; read-out: % inhibition (range)): 50 to 75% | inhibition at 10 µM ([12]; read-out: inhibition (10 μM)): 61.5% | inhibition at 10 µM ([13]; read-out: % inhibition (range)): 0% | inhibition at 10 µM ([13]; read-out: inhibition (10 μM)): -0.5% | inhibition at 10 µM ([14]; read-out: % inhibition (range)): 50 to 75% | inhibition at 10 µM ([14]; read-out: inhibition (10 μM)): 58% | inhibition at 10 µM ([15]; read-out: % inhibition (range)): > 90% | inhibition at 10 µM ([15]; read-out: inhibition (10 μM)): > 90% | inhibition at 10 µM ([16]; read-out: % inhibition (range)): 0% | inhibition at 10 µM ([16]; read-out: inhibition (10 μM)): 10.9% | inhibition at 10 µM ([17]; read-out: % inhibition (range)): 0% | inhibition at 10 µM ([17]; read-out: inhibition (10 μM)): 12.3% | inhibition at 10 µM ([18]; read-out: % inhibition (range)): 0% | inhibition at 10 µM ([18]; read-out: inhibition (10 μM)): 24.2% | % inhibition (range) ([19]; 10 μM): 0.0% | inhibition (10 μM) [19]: −1.3% | inhibition at 10 µM ([20]; read-out: % inhibition (range)): 75 to 90% | inhibition at 10 µM ([20]; read-out: inhibition (10 μM)): 89.3% | inhibition at 10 µM ([21]; read-out: % inhibition (range)): 0% | inhibition at 10 µM ([21]; read-out: inhibition (10 μM)): 15.2% | % inhibition (range) ([22]; 10 μM): 0.0% | inhibition (10 μM) [22]: 4.9% | % inhibition (range) ([23]; 10 μM): 0.0% | inhibition (10 μM) [23]: −14.5% | inhibition at 10 µM ([24]; read-out: % inhibition (range)): 0% | inhibition at 10 µM ([24]; read-out: inhibition (10 μM)): 3.8%

COc1cc(NS(=O)(=O)C2CC2)ccc1-c1cnc(N)c(-c2ccc3c(c2)CCNC3=O)c1 [Compound I-50, N-(4-(6-amino-5-(1-oxo-1,2,3,4-tetrahydroisoquinolin-6-yl)pyridin-3-yl)-3-methoxyphenyl) cyclopropanesulfonamide]
inhibition at 10 µM [1, 25]: 0% | inhibition at 10 µM ([1]; read-out: inhibition (10 μM)): -2.4% | inhibition at 10 µM [2, 25]: 0% | inhibition at 10 µM ([2]; read-out: inhibition (10 μM)): 19.3% | % inhibition ([3]; 10 μM, range class): 35-40% | inhibition (10 μM) [3]: 35.4% | inhibition at 10 µM [4, 25]: 0% | inhibition at 10 µM ([4]; read-out: inhibition (10 μM)): 7.7% | inhibition at 10 µM [5, 25]: 0% | inhibition at 10 µM ([5]; read-out: inhibition (10 μM)): 5.9% | inhibition at 10 µM [6, 25]: 0% | inhibition at 10 µM ([6]; read-out: inhibition (10 μM)): -2.8% | inhibition at 10 µM [7, 25]: 75 to 90% | inhibition at 10 µM ([7]; read-out: inhibition (10 μM)): 81.1% | inhibition at 10 µM [8, 25]: 0% | inhibition at 10 µM ([8]; read-out: inhibition (10 μM)): -17.9% | inhibition at 10 µM [9, 25]: 0% | inhibition at 10 µM ([9]; read-out: inhibition (10 μM)): 27.7% | inhibition at 10 µM [10, 25]: 0% | inhibition at 10 µM ([10]; read-out: inhibition (10 μM)): -1.1% | inhibition at 10 µM [11, 25]: 0% | inhibition at 10 µM ([11]; read-out: inhibition (10 μM)): 15.9% | inhibition at 10 µM [12, 25]: 0% | inhibition at 10 µM ([12]; read-out: inhibition (10 μM)): 9% | inhibition at 10 µM [13, 25]: 0% | inhibition at 10 µM ([13]; read-out: inhibition (10 μM)): 16.4% | inhibition at 10 µM [14, 25]: 0% | inhibition at 10 µM ([14]; read-out: inhibition (10 μM)): -12.1% | inhibition at 10 µM [15, 25]: 75 to 90% | inhibition at 10 µM ([15]; read-out: inhibition (10 μM)): 79.9% | inhibition at 10 µM [16, 25]: 0% | inhibition at 10 µM ([16]; read-out: inhibition (10 μM)): 6.3% | inhibition at 10 µM [17, 25]: 0% | inhibition at 10 µM ([17]; read-out: inhibition (10 μM)): 19.4% | inhibition at 10 µM [18, 25]: 0% | inhibition at 10 µM ([18]; read-out: inhibition (10 μM)): 4.5% | % inhibition ([19]; 10 μM, range class): 0.0% | inhibition (10 μM) [19]: −29.5% | inhibition at 10 µM [20, 25]: > 90% | inhibition at 10 µM ([20]; read-out: inhibition (10 μM)): 97.5% | inhibition at 10 µM [21, 25]: 0% | inhibition at 10 µM ([21]; read-out: inhibition (10 μM)): -20.2% | % inhibition ([22]; 10 μM, range class): 35-40% | inhibition (10 μM) [22]: 38.1% | % inhibition ([23]; 10 μM, range class): 0.0% | inhibition (10 μM) [23]: −18.4% | inhibition at 10 µM [24, 25]: 0% | inhibition at 10 µM ([24]; read-out: inhibition (10 μM)): -21%
